The values that follow are results of earlier work, collected in US20220134131A1, “ENERGY AUGMENTATION STRUCTURES FOR MEASURING AND THERAPEUTIC USES” (IMMUNOLIGHT, LLC, priority 2019, published 2022).

For the data set, the system named is HT-29 cells.

For the molecule `OO` [H2O2, hydrogen peroxide], the “effect of application on HT-29 cells” value is recorded as “caused their death”.
